# Results reported in publication PMC12434668 (Journal of Medicinal Chemistry, 2025).
# Values joined by “and” are separate entries in the source; they are usually repeats but may differ in a detail not shown here. Identical values can stand only once. Like-named read-outs stand apart in the source and are kept apart here.
# Assays:
# [1] = Mouse pharmacokinetic analyses (i.v. and oral); type: in vivo; settings: plasma
# Experimental: For PK analysis, mice were administered intravenously or orally with compound formulated in 10% ethanol and 10% Cremophor EL. Compound 13 dosing was also screened with 20% Phosphal IPG, 20% Phosphal MCT, 10% HP-β-CD, and 40% HP-β-CD. Plasma samples were obtained at predefined time points and compound concentrations in plasma were measured by quantitative HPLC–MS/MS using an internal standard. Calibration and quality control samples were prepared using blank plasma from untreated animals. Samples were precipitated with acetonitrile and injected into a HPLC system (Agilent 1200). Separation was performed by gradients of 5 mmol/L ammonium acetate pH 5.0 and acetonitrile with 0.1% formic acid on a Luna C8 reversed-phase column with 2.5 μm particles (Phenomenex). The HPLC was interfaced by ESI operated in positive ionization mode to a triple quadrupole mass spectrometer (6500+ Triple Quad System, SCIEX) operated in multiple reaction monitoring mode. Chromatograms were analyzed with Analyst (SCIEX) and pharmacokinetic parameters were calculated by noncompartmental analysis using proprietary software.
# [2] = parameters: method as in earlier work; settings: ref 66 (number lost in text); cited from earlier work
# [3] = test system: A427 cell line-derived NSCLC xenograft; test: Subcutaneous A427 NSCLC xenograft efficacy study; type: in vivo; settings: for tumor regressions (day 28): animals regressing / group
# Text: Female BomTac:NMRI-Foxn1nu mice and CB17/Icr-Prkdc(scid)/IcrCrl and were obtained from Taconic Denmark at an age of 6–8 weeks. After arrival of the local animal facility at Boehringer Ingelheim RCV GmbH & Co KG (institutional approval–Amt der Wiener Landesregierung, Magistratsabteilung 58, GZ: 135147/2013/4) mice were allowed to adjust to housing conditions at least for 5 days before the start of the experiment. Mice were group-housed under pathogen-free and controlled environmental conditions and handled according to the institutional, governmental and European Union guidelines (Austrian Animal Protection Laws, GV-SOLAS and FELASA guidelines). Animal studies were approved by the internal ethics committee and the local governmental committee (Amt der Wiener Landesregierung, Magistratsabteilung 58). To establish subcutaneous tumors mice were injected with 5 × 10^6 A427 cells in Matrigel (CB17/Icr-Prkdc(scid)/IcrCrl. Tumor diameters were measured with a caliper three times a week. The volume of each tumor [in mm^3] was calculated according to the formula “tumor volume = length*diameter^2*π/6.” To monitor side effects of treatment, mice were inspected daily for abnormalities and body weight was determined. Animals were sacrificed when the tumors reached a size of 1500 mm^3. Mice were dispatched randomly into treatment groups when the tumor size was 160 mm^3. Tumors were reported as regressing when the tumor volume at a given day was below the tumor volume at treatment start.
# [4] = test system: caspase 3/7 in K562 cells; test: Caspase 3/7 induction assay (Caspase-Glo), K562; type: cell-based; settings: compound treatment for 3 h; for EC50: Homo sapiens, K562
# Experimental: (§1) Cells were treated with a 10-point compound titration and incubated at 37 °C for 3 h.
# A427 cells = test: In vitro proliferation assay (CellTiter-Glo), A427; type: cell-based; settings: Homo sapiens, A-427
# Experimental: (§2) NCI-H929, A427, and K562 cell lines were obtained from ATCC. NCI-H929 cells were cultured in RPMI1640 (ATCC-formulated, Catalog No. 30-2001) + 10% fetal calf serum (FCS, GIBCO BRL, Cat. No. 26140) + 0.05 mM mercaptoethanol. A-427 cells were cultured in RPMI1640 (ATCC-formulated, Catalog No. 30-2001) + 10% fetal calf serum (FCS, GIBCO BRL, Cat. No. 26140). K562 cell lines were cultured in Iscove’s Modified Dulbecco Medium (Gibco-formulated, purchased from Thermo-Fisher, Cat. No. 12440-053) + 10% fetal bovine serum (FBS, Sigma-Aldrich, F2442). All cell lines were cultured at 37 °C with 5% CO2 in a humidified incubator and have been regularly tested negatively for mycoplasm contamination.
# (§3) Cells were seeded at 750–1500 cells per well (depending on growth kinetics) in 384-well plates (Corning, Catalog No. 3707) or at 3000 cells per well in 96-well plates in the respective growth medium and allowed to settle overnight. Suspension cells were plated immediately before compound addition. Adherent cell lines were incubated overnight at 37 °C in a tissue culture incubator prior to compound addition. Compounds were added in triplicates using an HP D300e Digital Dispenser (Hewlett-Packard) or manually at the concentrations indicated and total volumes were normalized using DMSO backfill, with final DMSO concentration of 0.5%. Control wells were treated with DMSO only. Following incubation for 72 or 96 h, a Cell Titer-Glo assay was conducted following the manufacturer recommendations (Promega, G9243) and luminescence was measured using a Victor X5 (PerkinElmer) or a Cytation 3 (Biotek) plate reader. % Viability was defined as relative luminescence units (RLU) of each well divided by the RLU of cells on day 0. Four parameter sigmoidal dose–response curves were generated and IC50 values were determined using XLFit (IDBS) software (eq 205) or in-house software. Drug combination experiments were performed in 96-well or 384-well format and drug synergy was determined using the BLISS model (PMID: 26171228).
# K562 cells = test: In vitro proliferation counterscreen, Mcl-1 insensitive K562; type: cell-based; settings: for GI50: Homo sapiens, Mcl-1 insensitive K562, top concentration tested 12.5 µM
# Experimental: NCI-H929, A427, and K562 cell lines were obtained from ATCC.
# Suspension cells were plated immediately before compound addition. Adherent cell lines were incubated overnight at 37 °C in a tissue culture incubator prior to compound addition. Compounds were added in triplicates using an HP D300e Digital Dispenser (Hewlett-Packard) or manually at the concentrations indicated and total volumes were normalized using DMSO backfill, with final DMSO concentration of 0.5%. Control wells were treated with DMSO only. Following incubation for 72 or 96 h, a Cell Titer-Glo assay was conducted following the manufacturer recommendations (Promega, G9243) and luminescence was measured using a Victor X5 (PerkinElmer) or a Cytation 3 (Biotek) plate reader. % Viability was defined as relative luminescence units (RLU) of each well divided by the RLU of cells on day 0.
# [5] = Kinetic aqueous solubility; type: physicochemical
# [6] = test system: caspase 3/7 in H929 cells; test: Caspase 3/7 induction assay (Caspase-Glo), H929; type: cell-based; settings: compound treatment for 3 h; for EC50: Homo sapiens, NCI-H929
# Experimental: as §1
# NCI-H929 cells = test: In vitro proliferation assay (CellTiter-Glo), H929; type: cell-based; settings: Homo sapiens
# Experimental: as §2, §3
# [7] = test system: caspase 3/7 in A427 cells; test: Caspase 3/7 induction assay (Caspase-Glo), A427; type: cell-based; settings: compound treatment for 3 h; for EC50: Homo sapiens, A-427
# Experimental: as §1
# Mcl-1 = target: T1, Mcl-1 (Homo sapiens, UniProt Q07820); test: TR-FRET binding assay (FITC-Bak peptide competition)
# T1 construct: Briefly, a previously reported construct was subcloned into an expression vector (pDEST-HisMBP); MBP (from vector pDEST-HisMBP); made in house; host or cells: Escherichia coli BL21 CodonPlus (DE3) RIL
# T1 sequence (Q07820 whole entry): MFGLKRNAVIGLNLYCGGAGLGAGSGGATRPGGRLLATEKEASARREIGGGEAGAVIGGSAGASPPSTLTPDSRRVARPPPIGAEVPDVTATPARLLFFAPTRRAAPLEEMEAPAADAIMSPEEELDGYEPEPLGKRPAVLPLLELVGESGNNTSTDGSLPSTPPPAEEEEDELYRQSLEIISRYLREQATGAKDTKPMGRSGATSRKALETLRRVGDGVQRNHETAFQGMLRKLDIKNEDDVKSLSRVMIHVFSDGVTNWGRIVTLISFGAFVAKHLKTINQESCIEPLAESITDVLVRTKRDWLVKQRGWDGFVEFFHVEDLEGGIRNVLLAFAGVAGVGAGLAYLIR
# Text: Protein preparation was described previously. Briefly, a previously reported construct was subcloned into an expression vector (pDEST-HisMBP) expressed in Escherichia coli BL21 CodonPlus (DE3) RIL (Stratagene) and purified through nickel-column and size-exclusion chromatography sequentially.
# Mixtures containing vehicle without compound served as a negative control, while mixtures containing no protein served as a positive control. […] Two or more repeats were obtained and average K i values are reported.
# Bcl-xL = test: Selectivity for Mcl-1 over Bcl-xL; type: binding
# Bcl-2 = test: Selectivity for Mcl-1 over Bcl-2; type: binding
# [8] = iv, dosed at 20 mg/kg, read-out: i.v. mouse CL
# [9] = iv, supplementary CSV, unit not given (Table 1: 20 mg/kg, 14 and 16 at 10 mg/kg), read-out: CL
# [10] = supplementary CSV, unit inferred
# [11] = aqueous medium at pH 6.8, pH 6.8
# [12] = in the presence of 1% fetal bovine serum, average of at least n = 2, read-out: TRFRET, Mcl-1 Ki
# [13] = A427 cell line, average of at least n = 2, triplicate
# [14] = H929 cell line, average of at least n = 2, triplicate
EC50 [4],"clearance [1, 8]","clearance [1, 9]",EC50 [6],EC50 [7],Ki (Mcl-1; [12]),Compound,K562 Caspase 3/7 fold over vehicle (FoV) [4],GI50 (K562 cells),"solubility kinetic [5, 11]","H929 Caspase 3/7 maximum activity, fold over vehicle (FoV) [6]",A427 Caspase 3/7 fold over vehicle (FoV) [7],GI50 (A427 cells; [13]),GI50 (NCI-H929 cells; [14]),further results
,,,,,,COc1c(OCC2CCOCC2)cc(N2C[C@@H](C)n3c(c(CCCOc4cc(C)c(Cl)c(C)c4)c4ccc(Cl)c(-c5c(C)nc(C)nc5C)c43)C2=O)c2c1cc(C(=O)O)n2C [Compound 1],,,,,,,,"AUC ([1]; iv, 40 mg/kg q14d i.v., xenograft study, read-out: AUC): 198 µM·h; dog CL [2]: 5.2 mL/min/kg; tumor regressions (day 28) ([3]; 40 mg/kg q14d i.v.): 0/8"
> 3120 nM,6.6 mL/min/kg,6.6 mL/min/kg,9 nM,11 nM,0.08 ± 0.01 nM,"COc1cc2c3c(cc(C(=O)O)n3CCCOCc3nn(C)c(C)c3-c3c(Cl)ccc4c(CCCOc5cc(C)c(Cl)c(C)c5)c5n(c34)[C@H](C)CN2C5=O)c1OC [Compound 10, (2^63^4 S a ,1^72^2 R a ,2^4 R)-2^7-Chloro-2^10-(3-(4-chloro-3,5-dimethylphenoxy)propyl)-1^4,1^5-dimethoxy-2^4,3^1,3^5-trimethyl-2^1-oxo-2^1,2^2,2^3,2^4-tetrahydro-1^1 H,3^1 H-5-oxa-2(2,6)-pyrazino[1,2-a]indola-1(7,1)-indola-3(4,3)-pyrazolacyclooctaphane-1^2-carboxylic Acid]",1.4 fold,> 9700 nM,2 µg/mL,16 fold,13 fold,,,GI50 (A427 cells; [10]): 48 nM; GI50 (NCI-H929 cells; [10]): 20 nM
> 3120 nM,5.7 mL/min/kg,5.7 mL/min/kg,16 nM,12 nM,< 0.08 nM,"COc1cc2c3c(cc(C(=O)O)n3CCCOCc3nn(C)cc3-c3c(Cl)ccc4c(CCCOc5cc(C)c(Cl)c(C)c5)c5n(c34)[C@H](C)CN2C5=O)c1C [Compound 17, (2^63^4 S a ,1^72^2 R a ,2^4 R)-2^7-Chloro-2^10-(3-(4-chloro-3,5-dimethylphenoxy)propyl)-1^5-methoxy-1^4,2^4,3^1-trimethyl-2^1-oxo-2^1,2^2,2^3,2^4-tetrahydro-1^1 H,3^1 H-5-oxa-2(2,6)-pyrazino[1,2-a]indola-1(7,1)-indola-3(4,3)-pyrazolacyclooctaphane-1^2-carboxylic Acid]",1.3 fold,> 12500 nM,,16 fold and 16 (16) fold,16 fold,32 ± 7 nM,23 ± 5 nM,"solubility kinetic ([5]; aqueous medium, pH 6.8, pH 6.8): 39 µg/mL; Ki (Mcl-1; supplementary CSV, unit inferred, read-out: Ki TRFRET): < 0.02 nM"

Compound,EC50 [4],"clearance [1, 8]","clearance [1, 9]",EC50 [6],EC50 [7],Ki (Mcl-1; [12]),K562 Caspase 3/7 fold over vehicle (FoV) [4],GI50 (K562 cells),"solubility kinetic [5, 11]","H929 Caspase 3/7 maximum activity, fold over vehicle (FoV) [6]",A427 Caspase 3/7 fold over vehicle (FoV) [7],GI50 (A427 cells; [13]),GI50 (NCI-H929 cells; [14]),further results
"COc1cc2c3c(cc(C(=O)O)n3CCCOCc3nn(C)cc3-c3c(Cl)ccc4c(CCCOc5cc(C)c(Cl)c(C)c5)c5n(c34)[C@H](C)CN2C5=O)c1OC [Compound 13, (2^63^4 S a ,1^72^2 R a ,2^4 R)-2^7-Chloro-2^10-(3-(4-chloro-3,5-dimethylphenoxy)propyl)-1^4,1^5-dimethoxy-2^4,3^1-dimethyl-2^1-oxo-2^1,2^2,2^3,2^4-tetrahydro-1^1 H,3^1 H-5-oxa-2(2,6)-pyrazino[1,2-a]indola-1(7,1)-indola-3(4,3)-pyrazolacyclooctaphane-1^2-carboxylic Acid]",> 3120 nM,7.4 mL/min/kg,7.4 mL/min/kg,13 nM,7.8 nM,< 0.08 nM,1.3 fold,> 12500 nM,85 µg/mL,16 fold,16 fold,25 ± 9 nM,14 ± 4 nM,"selectivity for Mcl-1 over Bcl-xL (Bcl-xL): > 50,000 fold; AUC ([1]; iv, 20 mg/kg, read-out: AUCIV): 60.9 µM·h; AUC ([1]; iv, 30 mg/kg q14d i.v., xenograft study, read-out: AUC): 144 µM·h; AUC ([1]; iv, 60 mg/kg q14d i.v., xenograft study, read-out: AUC): 481 µM·h; AUC ([1]; oral, 20 mg/kg, read-out: AUCPO): 0.625 µM·h; bioavailability ([1]; po, read-out: oral bioavailability (F)): 1%; tolerability, body weight ([3]; 60 mg/kg q14d i.v.): body weight behaved similarly to the vehicle control cohort; tumor regressions (day 28) ([3]; 60 mg/kg q14d i.v.): 7/8; tumor outgrowth, study day ([3]; sc, 60 mg/kg, 480 h): ~50 study day; selectivity for Mcl-1-sensitive cell lines over the K562 control (K562 cells; GI50 ratio): > 900 fold; selectivity for Mcl-1 over Bcl-2 (Bcl-2): > 50,000 fold"
